Assay results taken from ChEMBL document CHEMBL6103632, “Seven New Guanidine Derivatives and One New Hypoxanthine Derivative Isolated from the Scorpion Buthus martensii and Potential Anti-Neuroinflammatory Activity” (J Nat Prod, 2025).
Active and inactive are the calls of the source. The calls are words filed in the database; no cut-off is given here.

Tests used:
[1] = Cytotoxicity against mouse BV-2 cells assessed as cell viability at 20 uM incubated for 24 hr by CCK-8 assay; type: toxicity, cell-based; settings: read-out: Activity
BV-2 [2] = test: Antineuroinflammatory activity in LPS-induced mouse BV-2 cells assessed as reduction in TNF-alpha level at 20 uM pretreated with LPS for 4 hrs followed by compound treatment for 24 hrs by ELISA analysis; type: functional, cell-based
BV-2 [3] = test: Antineuroinflammatory activity in LPS-induced mouse BV-2 cells assessed as reduction in IL-1beta level at 20 uM pretreated with LPS for 4 hrs followed by compound treatment for 24 hrs by ELISA analysis; type: functional, cell-based
BV-2 [4] = test: Antineuroinflammatory activity in LPS-induced mouse BV-2 cells assessed as reduction in IL-6 level at 20 uM pretreated with LPS for 4 hrs followed by compound treatment for 24 hrs by ELISA analysis; type: functional, cell-based
Mitochondrial membrane = test: Induction of mitochondrial membrane potential in LPS-induced mouse BV-2 cells assessed as reduction in ratio of red to green fluorescence intensity at 20 uM pretreated with LPS for 4 hrs followed by compound treatment for 24 hrs by JC-1 staining based assay; type: cell membranes
BV-2 [5] = test: Antineuroinflammatory activity in LPS-induced mouse BV-2 cells assessed as reduction in ROS level pretreated with LPS for 4 hrs followed by compound treatment for 24 hrs by ROS probe based microscopy; type: functional, cell-based; settings: dose 20.0 µM

SMILES | viability at 24 h, 20 µM [1] [%] | further results
N=C(N)NCCCCNC(=O)c1ccc(O)cc1 | > 75 | –
N=C(N)NCCCCNC(=O)Cc1ccc(O)c(Cl)c1 | > 75 | –
CC(=O)CC(C)(C)n1cnc2c(=O)[nH]cnc21 | > 75 | –
CCC/C=C/C(=O)NCCCCNC(=N)N | > 75 | –
N=C(N)NCCCCNC(=O)Cc1ccc(O)cc1 | > 75 | –
N=C(N)NCCCCNC(=O)c1ccccc1 | > 75 | –
COc1cc(CC(=O)NCCCCNC(=N)N)ccc1O | > 75 | Activity (BV-2 [2]): Active; Activity (BV-2 [3]): Active; Activity (BV-2 [4]): Active; Activity (Mitochondrial membrane): Active
COc1ccc2[nH]cc(CCNC(C)=O)c2c1 | – | Activity (BV-2 [5]): Dose-dependent-effect
N=C(N)NCCCCn1cnc2ccccc2c1=O | > 75 | –
N=C(N)NCCCCNC(=O)c1cccnc1 | > 75 | –
N=C(N)NCCCCNC(=O)Cc1c[nH]c2ccccc12 | > 75 | –
N=C(N)NCCCCNC(=O)c1c[nH]c2ccccc12 | > 75 | –
N=C(N)NCCCCNC(=O)Cc1cc(Cl)c(O)c(Cl)c1 | > 75 | –
N=C(N)NCCCCNC(=O)Cc1ccccc1 | > 75 | –
